Data as given in patent publication US8815901B2 (Novartis AG, priority 2008, dated 2014).

The compounds below were run against FGFR3 kinase (Homo sapiens (Human), UniProt P22607, K650E) (assay: FGFR3 kinase inhibition assay (radiometric filter binding / LanthaScreen TR-FRET)). Settings: read-out: rating (FGFR3 kinase IC50).
Type: biochemical
Method: Enzyme activities were measured by mixing 10 μL of a 3-fold concentrated compound solution or control with 10 μL of the corresponding substrate mixture (peptidic substrate, ATP and [γ^33P]ATP). The reactions were initiated by addition of 10 μL of a 3-fold concentrated solution of the respective enzyme in assay buffer.
Filter binding (FB) method: FB assays were carried out in 96-well plates at room temperature for 10 min in a finial volume of 30 μL including the components as indicated in section above. […] After spotting, vacuum was connected and each well rinsed with 200 μL 0.5% H3PO4. Free membranes were removed and washed 4 times on a shaker with 1% H3PO4 and once with ethanol. Membranes were dried and overlaid with addition of 10 μL/well of a scintillation fluid. The plates were eventually sealed and counted in a microplate scintillation counter. IC50 values were calculated by linear regression analysis of the percentage inhibition of the compound.
The assay has been run at room temperature on a liquid handling robot. […] After an incubation time of 45 min in the dark, the plates were transferred into a fluorescence reader for counting.
Compounds of formula (I) are assayed to measure their capacity to inhibit FGFR3 kinase as described above.

FGFR3 kinase, sequence (P22607 23-806 K650E): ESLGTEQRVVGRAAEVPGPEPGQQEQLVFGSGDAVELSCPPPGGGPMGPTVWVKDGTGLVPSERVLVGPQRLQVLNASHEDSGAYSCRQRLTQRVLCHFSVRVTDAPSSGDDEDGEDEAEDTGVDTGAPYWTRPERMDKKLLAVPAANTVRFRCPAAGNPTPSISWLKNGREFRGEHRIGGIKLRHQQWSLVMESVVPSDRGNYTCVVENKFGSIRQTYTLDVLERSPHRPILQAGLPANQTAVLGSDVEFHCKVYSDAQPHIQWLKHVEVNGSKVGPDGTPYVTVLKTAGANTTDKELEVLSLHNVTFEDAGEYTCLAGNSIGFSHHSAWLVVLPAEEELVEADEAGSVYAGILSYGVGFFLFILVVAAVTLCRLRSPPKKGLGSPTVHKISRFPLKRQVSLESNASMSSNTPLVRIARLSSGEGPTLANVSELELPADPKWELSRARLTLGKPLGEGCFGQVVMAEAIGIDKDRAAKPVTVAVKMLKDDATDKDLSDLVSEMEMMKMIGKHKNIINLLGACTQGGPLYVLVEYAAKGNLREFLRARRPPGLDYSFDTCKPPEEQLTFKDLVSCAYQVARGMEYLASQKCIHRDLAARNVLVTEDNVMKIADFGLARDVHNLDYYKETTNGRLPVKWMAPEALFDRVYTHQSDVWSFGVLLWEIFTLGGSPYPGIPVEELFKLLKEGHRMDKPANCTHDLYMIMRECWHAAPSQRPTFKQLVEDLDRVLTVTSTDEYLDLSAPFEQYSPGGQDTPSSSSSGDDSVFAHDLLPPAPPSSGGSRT

| Structure (SMILES) | IC50 [nM] |
| --- | --- |
| COc1cc(OC)c(Cl)c(-c2ccc(C(=O)Nc3ccn(CCN(C)C)c3)c3nccnc23)c1Cl [Example 121, 8-(2,6-Dichloro-3,5-dimethoxy-phenyl)-quinoxaline-5-carboxylic acid [1-(2-dimethylamino-ethyl)-1H-pyrrol-3-yl]-amide] | 500 to 50000 |
| COc1cc(OC)cc(-c2ccc(C(=O)Nc3ccc(CN4CCNCC4)cn3)c3nccnc23)c1 [Example 117] | 500 to 50000 |
| CCN1CCN(Cc2ccc(NC(=O)c3ccc(-c4c(F)c(OC)cc(OC)c4F)c4nccnc34)cn2)CC1 [Example 88, 8-(2,6-Difluoro-3,5-dimethoxy-phenyl)-quinoxaline-5-carboxylic acid [6-(4-ethyl-piperazin-1-ylmethyl)-pyridin-3-yl]-amide] | < 100 |
| COc1cc(OC)c(F)c(-c2ccc(C(=O)Nc3nc(CN4CCN(C)CC4)c[nH]3)c3nccnc23)c1F [Example 141, 8-(2,6-Difluoro-3,5-dimethoxy-phenyl)-quinoxaline-5-carboxylic acid [4-(4-methyl-piperazin-1-ylmethyl)-1H-imidazol-2-yl]-amide] | < 100 |
| COc1cc(OC)c(Cl)c(-c2ccc(C(=O)Nc3ccc(CN4CCN(C)CC4)cn3)c3ncccc23)c1Cl [Example 164, 5-(2,6-Dichloro-3,5-dimethoxy-phenyl)-quinoline-8-carboxylic acid [5-(4-methyl-piperazin-1-ylmethyl)-pyridin-2-yl]-amide] | < 100 |
| COc1cc(OC)c(Cl)c(-c2ccc(C(=O)Nc3ccc(O)cc3)c3nccnc23)c1Cl [Example 7, 8-(2,6-Dichloro-3,5-dimethoxy-phenyl)-quinoxaline-5-carboxylic acid (4-hydroxyphenyl)-amide] | 500 to 50000 |
| COc1cc(OC)c(Cl)c(-c2ccc(C(=O)Nc3ccc(OCCN(C)C)cc3)c3nccnc23)c1Cl [Example 5, 8-(2,6-Dichloro-3,5-dimethoxy-phenyl)-quinoxaline-5-carboxylic acid [4-(2-dimethylamino-ethoxy)-phenyl]-amide] | < 100 |
| COc1cc(OC)c(Cl)c(-c2ccc(C(=O)Nc3nccn3Cc3ccccc3)c3ncccc23)c1Cl [Example 160, 5-(2,6-Dichloro-3,5-dimethoxy-phenyl)-quinoline-8-carboxylic acid (1-benzyl-1H-imidazol-2-yl)-amide] | 500 to 50000 |
| COc1cc(OC)c(Cl)c(-c2ccc(C(=O)Nc3ccc(CN(C)CCN(C)C)cn3)c3nccnc23)c1Cl [Example 81, 8-(2,6-Dichloro-3,5-dimethoxy-phenyl)-quinoxaline-5-carboxylic acid (5-{[(2-dimethylamino-ethyl)-methyl-amino]-methyl}-pyridin-2-yl)-amide] | < 100 |
| COc1cc(OC)c(Cl)c(-c2ccc(C(=O)Nc3ccc(N(C)C4CCN(C)CC4)nc3)c3nccnc23)c1Cl [Example 37, 8-(2,6-Dichloro-3,5-dimethoxy-phenyl)-quinoxaline-5-carboxylic acid {6-[methyl-(1-methyl-piperidin-4-yl)-amino]-pyridin-3-yl}-amide] | < 100 |
| COc1cc(OC)c(Cl)c(-c2ccc(C(=O)Nc3ccc(CN4CCNCC4)nc3)c3ncccc23)c1Cl [Example 171, 5-(2,6-Dichloro-3,5-dimethoxy-phenyl)-quinoline-8-carboxylic acid (6-piperazin-1-ylmethyl-pyridin-3-yl)-amide] | 500 to 50000 |
| COc1cc(OC)c(Cl)c(-c2ccc(C(=O)Nc3nnc[nH]3)c3ncccc23)c1Cl [Example 163] | 500 to 50000 |
| COc1cc(OC)c(Cl)c(-c2ccc(C(=O)Nc3ccc(CN4CCS(=O)(=O)CC4)cn3)c3nccnc23)c1Cl [Example 104, 8-(2,6-Dichloro-3,5-dimethoxy-phenyl)-quinoxaline-5-carboxylic acid [5-(1,1-dioxothiomorpholin-4-ylmethyl)-pyridin-2-yl]-amide] | 100 to 500 |
| COc1cc(OC)c(F)c(-c2ccc(C(=O)Nc3cccnc3)c3nccnc23)c1F [Example 90, 8-(2,6-Difluoro-3,5-dimethoxy-phenyl)-quinoxaline-5-carboxylic acid pyridin-3-ylamide] | 100 to 500 |
| CCN1CCN(Cc2ccc(NC(=O)c3ccc(-c4cc(OC)cc(OC)c4)c4nccnc34)nc2)CC1 [Example 115, 8-(3,5-Dimethoxy-phenyl)-quinoxaline-5-carboxylic acid [5-(4-ethyl-piperazin-1-ylmethyl)-pyridin-2-yl]-amide] | 500 to 50000 |
| COc1cc(OC)c(Cl)c(-c2ccc(C(=O)Nc3ccc(CN4CCN(C)CC4)nc3)c3ncccc23)c1Cl [Example 168, 5-(2,6-Dichloro-3,5-dimethoxy-phenyl)-quinoline-8-carboxylic acid [6-(4-methyl-piperazin-1-ylmethyl)-pyridin-3-yl]-amide] | 100 to 500 |
| CCN1CCN(Cc2ccc(NC(=O)c3ccc(-c4c(Cl)c(OC)cc(OC)c4Cl)c4cccnc34)cn2)CC1 [Example 169, 5-(2,6-Dichloro-3,5-dimethoxy-phenyl)-quinoline-8-carboxylic acid [6-(4-ethyl-piperazin-1-ylmethyl)-pyridin-3-yl]-amide] | 100 to 500 |
| COc1ccc(Cl)c(-c2ccc(C(=O)Nc3ccc(OCCN(C)C)cc3)c3nccnc23)c1 [Example 65, 8-(2-Chloro-5-methoxy-phenyl)-quinoxaline-5-carboxylic acid [4-(2-dimethylamino-ethoxy)-phenyl]-amide] | 500 to 50000 |
| COc1cc(OC)c(Cl)c(-c2ccc(C(=O)Nc3ccc(N4CCN(C(C)C)CC4)nc3)c3nccnc23)c1Cl [Example 33, 8-(2,6-Dichloro-3,5-dimethoxy-phenyl)-quinoxaline-5-carboxylic acid [6-(4-isopropyl-piperazin-1-yl)-pyridin-3-yl]-amide] | < 100 |
| COc1cc(OC)c(F)c(-c2ccc(C(=O)Nc3ccc(CN4CCS(=O)(=O)CC4)cn3)c3nccnc23)c1F [Example 140, 8-(2,6-Difluoro-3,5-dimethoxy-phenyl)-quinoxaline-5-carboxylic acid [5-(1,1-dioxo-thiomorpholin-4-ylmethyl)-pyridin-2-yl]-amide] | < 100 |
| COc1cc(OC)c(Cl)c(-c2ccc(C(=O)Nc3cnc[nH]3)c3ncccc23)c1Cl [Example 162, 5-(2,6-Dichloro-3,5-dimethoxy-phenyl)-quinoline-8-carboxylic acid (3H-imidazol-4-yl)-amide] | 100 to 500 |
| COc1cc(OC)c(Cl)c(-c2ccc(C(=O)Nc3cccnc3)c3ncc(N(C)CCN(C)C)nc23)c1Cl [Example 87, 8-(2,6-Dichloro-3,5-dimethoxy-phenyl)-2-[(2-dimethylamino-ethyl)-methyl-amino]-quinoxaline-5-carboxylic acid pyridin-3-ylamide] | 500 to 50000 |
| CCN1CCN(c2ccc(NC(=O)c3ccc(-c4c(Cl)c(OC)cc(OC)c4Cl)c4nccnc34)cc2)CC1 [Example 1, 8-(2,6-Dichloro-3,5-dimethoxy-phenyl)-quinoxaline-5-carboxylic acid [4-(4-ethylpiperazin-1-yl)-phenyl]-amide] | < 100 |
| CCN1CCN(c2ccc(NC(=O)c3ccc(-c4c(C)cccc4C)c4nccnc34)cc2)CC1 [Example 72, 8-(2,6-Dimethyl-phenyl)-quinoxaline-5-carboxylic acid [4-(4-ethyl-piperazin-1-yl)-phenyl]-amide] | 500 to 50000 |
| COc1cc(OC)c(Cl)c(-c2ccc(C(=O)Nc3nnc[nH]3)c3nccnc23)c1Cl [Example 17, 8-(2,6-Dichloro-3,5-dimethoxy-phenyl)-quinoxaline-5-carboxylic acid (4H-[1,2,4]triazol-3-yl)-amide] | 500 to 50000 |
| COc1cc(OC)c(F)c(-c2ccc(C(=O)Nc3ccc(CN4CCN(C)CC4)nc3)c3nccnc23)c1F [Example 89, 8-(2,6-Difluoro-3,5-dimethoxy-phenyl)-quinoxaline-5-carboxylic acid [6-(4-methyl-piperazin-1-ylmethyl)-pyridin-3-yl]-amide] | < 100 |
| CCN1CCN(Cc2ccc(NC(=O)c3ccc(-c4c(Cl)c(OC)cc(OC)c4Cl)c4cccnc34)nc2)CC1 [Example 165, 5-(2,6-Dichloro-3,5-dimethoxy-phenyl)-quinoline-8-carboxylic acid [5-(4-ethyl-piperazin-1-ylmethyl)-pyridin-2-yl]-amide] | 100 to 500 |
| COc1cc(OC)c(Cl)c(-c2ccc(C(=O)Nc3ncc[nH]3)c3ncccc23)c1Cl [Example 161, 5-(2,6-Dichloro-3,5-dimethoxy-phenyl)-quinoline-8-carboxylic acid (1H-imidazol-2-yl)-amide] | < 100 |
